This experiment addresses Rhesus PDE2A3 (Macaca mulatta, UniProt B3VTJ2). Put plainly: PDE2 fluorescence polarization (IMAP FP) assay, rhesus PDE2A3. Format: biochemical, rhesus macaque. On the procedure:
A Labcyte Echo 555 (Labcyte, Sunnyvale, Calif.) is used to dispense 200 nL from each well of the titration plate to the 384 well assay plate. Ten microliters of a solution of enzyme (1/2000 final dilution from aliquots; sufficient to produce 20% substrate conversion) was added to the assay plate. Next 10 uL of a separate solution of the substrate FAM-labeled cAMP (50 nM final concentration product # R7506 from Molecular Devices) and the activator cGMP (1 uM final concentration), prepared in the assay buffer (10 mM Tris HCl, pH 7.2, 10 mM MgCl2, 0.05% NaN3 0.01% Tween-20, and 1 mM DTT) was added to the assay plate and shaken to mix. The reaction is allowed to proceed at room temperature for 60 minutes. A binding solution is then made from the kit components, comprised of 80% Solution A, 20% Solution B and binding reagent at a volume of 1/600 the total binding solution. The enzymatic reaction is stopped by addition of 60 μL of the binding solution to each well of the assay plates and the plates are sealed and shaken for 30 seconds. The plate was incubated at room temperature for at least one hour prior to determining the fluorescence polarization (FP). The parallel and perpendicular fluorescence of each well of the plate was measured using a Tecan Genios Pro plate reader (Tecan, Switzerland) or Perkin Elmer EnVision™ plate reader (Waltham, Mass.). Fluorescence polarization (mP) was calculated from the parallel (S) and perpendicular (P) fluorescence of each sample well and the analogous values for the median control well, containing only substrate (So and Po), using the following equation: Polarization (mP)=1000*(S/So−P/Po)/(S/So+P/Po).
Dose-inhibition profiles for each compound were characterized by fitting the mP data to a four-parameter equation given below.
An apparent (KM) for FAM-labeled cAMP of ˜10 uM was used.

Where [1] appears, read: Lab B, read-out: Rhesus PDE2 Ki (nM) Lab B.

Each structure is given as a SMILES string. Like-named read-outs stand apart in the source and are kept apart here.

Sequence of Rhesus PDE2A3 (B3VTJ2 1-941): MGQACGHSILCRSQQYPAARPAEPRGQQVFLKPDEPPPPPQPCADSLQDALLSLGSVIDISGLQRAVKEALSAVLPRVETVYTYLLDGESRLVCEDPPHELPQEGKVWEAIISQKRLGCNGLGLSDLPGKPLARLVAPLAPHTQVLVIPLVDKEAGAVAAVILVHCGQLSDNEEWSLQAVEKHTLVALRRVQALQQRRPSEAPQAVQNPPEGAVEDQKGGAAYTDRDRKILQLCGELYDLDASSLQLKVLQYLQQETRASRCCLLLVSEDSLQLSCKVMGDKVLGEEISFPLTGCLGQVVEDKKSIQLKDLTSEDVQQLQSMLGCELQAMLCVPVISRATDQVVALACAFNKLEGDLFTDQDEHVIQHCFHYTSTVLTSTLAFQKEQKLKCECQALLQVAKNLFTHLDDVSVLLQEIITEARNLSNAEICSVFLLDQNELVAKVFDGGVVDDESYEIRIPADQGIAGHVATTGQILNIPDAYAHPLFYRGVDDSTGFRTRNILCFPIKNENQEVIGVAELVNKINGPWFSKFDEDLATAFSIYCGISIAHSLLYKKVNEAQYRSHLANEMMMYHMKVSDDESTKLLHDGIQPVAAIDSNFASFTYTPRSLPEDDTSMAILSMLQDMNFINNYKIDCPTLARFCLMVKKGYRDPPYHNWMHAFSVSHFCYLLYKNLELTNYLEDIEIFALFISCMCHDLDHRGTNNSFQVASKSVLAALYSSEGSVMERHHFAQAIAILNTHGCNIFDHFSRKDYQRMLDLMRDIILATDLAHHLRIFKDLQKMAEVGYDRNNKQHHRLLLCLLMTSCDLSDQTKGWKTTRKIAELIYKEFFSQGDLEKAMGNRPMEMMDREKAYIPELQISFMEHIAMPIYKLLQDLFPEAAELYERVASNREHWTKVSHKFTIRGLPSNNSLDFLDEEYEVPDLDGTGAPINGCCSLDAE

By Ki is commonly meant a measure of affinity in units of concentration, obtained from inhibition or displacement. Take `CCC(c1ccc(CC(F)(F)F)c(F)c1)n1nc(CO)c2c(=O)[nH]c(N(C)C)nc21` (single isomer, unassigned) [Example 96, (R)- or (S)-6-(Dimethylamino)-1-(1-(3-fluoro-4-(2,2,2-trifluoroethyl)phenyl)propyl)-3-(hydroxymethyl)-1H-pyrazolo[3,4-d]pyrimidin-4(5H)-one]: the Ki under setting [1] came out at 0.5 nM.

In the case of `CC(C)(C)C(c1ccc(C(F)(F)F)cc1)n1nc(CO)c2c(=O)[nH]c(O)nc21` (single isomer, unassigned) [Example 30, (S)- or (R)-1-(2,2-Dimethyl-1-(4-(trifluoromethyl)phenyl)propyl)-6-hydroxy-3-(hydroxymethyl)-1H-pyrazolo[3,4-d]pyrimidin-4(5H)-one], under setting [1], the Ki came to 2040 nM.

Turning to `CC(C)(C)C(c1ccc(C(F)(F)F)cc1)n1nc(CC(F)(F)F)c2c(=O)[nH]c(O)nc21` (single isomer, unassigned) [Example 262, (R)- or (S)-1-(2,2-Dimethyl-1-(4-(trifluoromethyl)phenyl)propyl)-6-hydroxy-3-(2,2,2-trifluoroethyl)-1H-pyrazolo[3,4-d]pyrimidin-4(5H)-one], under setting [1], the Ki is 334 nM.

Regarding `CC(C)C(c1ccc(OC(F)(F)F)cc1)n1nc(CC(F)(F)F)c2c(=O)[nH]c(O)nc21` (single isomer, unassigned) [Example 233, (S)- or (R)-6-Hydroxy-1-(2-methyl-1-(4-(trifluoromethoxy)phenyl)propyl)-3-(2,2,2-trifluoroethyl)-1H-pyrazolo[3,4-d]pyrimidin-4(5H)-one], the Ki under setting [1] turned out to be 132 nM.

With `CC(C)(C)C(c1ccc(C(F)(F)F)cc1)n1nc(CF)c2c(=O)[nH]c(O)nc21` (single isomer, unassigned) [Example 51], the Ki under setting [1] was found to be 123 nM.

Regarding `O=c1[nH]c(O)nc2c1c(CO)nn2C(CC(F)(F)F)c1ccc(C(F)(F)F)cc1` (single isomer, unassigned) [Example 23], the Ki under setting [1] is about 2700 nM.

`Cc1ccc(C(C)n2nc(CO)c3c(=O)[nH]c(O)nc32)cc1` (centres unmarked) [Example 8]: the Ki (Lab A, read-out: Rhesus PDE2 Ki (nM) Lab A) came to 411 nM.

`O=c1[nH]c(O)nc2c1c(CC(F)(F)F)nn2C(c1ccc(C(F)(F)F)cc1)C1CC1` (single isomer, unassigned) [Example 228]: the Ki under setting [1] is 210 nM.

Turning to `CC(C)C(c1ccc(OC(F)(F)F)c(F)c1)n1nc(CC(F)(F)F)c2c(=O)[nH]c(O)nc21` (single isomer, unassigned) [Example 265, (S)- or (R)-1-(1-(3-Fluoro-4-(trifluoromethoxy)phenyl)-2-methylpropyl)-6-hydroxy-3-(2,2,2-trifluoroethyl)-1H-pyrazolo[3,4-d]pyrimidin-4(5H)-one], the Ki under setting [1] is 276 nM.

Regarding `CC(C)(C)C(c1ccc(C(F)(F)F)c(F)c1)n1nc(CO)c2c(=O)[nH]c(O)nc21` (single isomer, unassigned) [Example 24], under setting [1], the Ki was about 2270 nM.

As to `O=c1[nH]c(O)nc2c1c(CO)nn2C(c1ccc(C(F)(F)F)cc1)C1CC1` (single isomer, unassigned) [Example 14], the Ki under setting [1] was found to be 410 nM.

On to `CC(c1ccc(C(F)(F)F)c(F)c1)n1nc(CO)c2c(=O)[nH]c(O)nc21` (single isomer, unassigned) [Example 2], for which the Ki under setting [1] came out at 364 nM.

In the case of `CCC(c1ccc(C(F)(F)F)cc1)n1nc(C(F)F)c2c(=O)[nH]c(O)nc21` (single isomer, unassigned) [Example 285, (R)- or (S)-3-(Difluoromethyl)-6-hydroxy-1-(1-(4-(trifluoromethyl)phenyl)propyl)-1H-pyrazolo[3,4-d]pyrimidin-4(5H)-one], under setting [1], the Ki came to 232 nM.

Consider `CC(C)(C)C(c1ccc(C(F)(F)F)cc1)n1nc(CC(F)(F)F)c2c(=O)[nH]c(O)nc21` (single isomer, unassigned) [Example 263, (S)- or (R)-1-(2,2-Dimethyl-1-(4-(trifluoromethyl)phenyl)propyl)-6-hydroxy-3-(2,2,2-trifluoroethyl)-1H-pyrazolo[3,4-d]pyrimidin-4(5H)-one], for which the inhibition constant Ki under setting [1] stood at 5890 nM.

These data come from patent publication US10174037B2, “Dihydropyrazolopyrimidinone compounds as PDE2 inhibitors” (Merck Sharp & Dohme Corp., priority 2015, dated 2019).
